Experimental data taken from patent US6458585B1, “Cytokine-free culture of dendritic cells” (Nexell Therapeutics Inc., priority 1996, dated 2002).

Experiments:
Assay type in all cases: cell-based, human
adherent PBMNC [1] = assay: S100 immunohistochemistry of plastic adherent cells cultured with non-cytokine additives
Method: Immunocytochemical staining: PBS (phosphate buffered saline) was made by dissolving 5 PBS tablets into 1000 ml millipore water. Cytospin slides were soaked in PBS. […] Slides were rinsed with PBS one time. Non-specific binding sites were blocked by incubating with normal serum matching source of secondary antibody (i.e. if secondary antibody is biotinylated goat-anti-mouse, used normal goat serum) at room temp. for 15 min. in a humidified environment. Excess serum was shaken from slides and placed 100 ul of primary antibody on slide, making sure cells are covered with liquid and incubated in humidified environment, room temp, for one hour. Negative control slides were incubated with normal serum for this hour. Slides were rinsed 3 times with PBS. Slides were incubated with biotinylated antibody reactive against the primary antibody (i.e. if primary antibody is mouse-anti-human, use a biotinylated goat-anti-mouse antibody) for 1 hour in humidity. Slides were rinsed 3 times with PBS. Slides were incubated with streptavidin-peroxidase, 2 drops/slide, for 30 min. in humidity. Slides were rinsed 3 times with PBS.
Chromagen solution was made with 5 ml millipore water+2 drops of chromagen buffer+1 drop of concentrated chromagen+1 drop of substrate, and 4-5 drops were added to each slide. […] Slides were counterstained with hematoxylin for about 5 min, or until cell nuclei were stained purple. Cells were rinsed with tap water and allowed to air dry. Slides were covered with crystal mount and oven dried at 80 degrees for 15 min. Slides were allowed to cool, then coversliped with mounting medium.
(§1) Enrichment and Culture of Adherent Cells Using Polystyrene Tissue Culture Plates: PBMNC were resuspended in culture media (X-VIVO 15™+10% autologous serum) at 2×10^6 cells/ml. Cells were placed into 48 well polystyrene tissue culture plates […] and incubated for 2 hours in a 5% CO2, ambient O2, 37° C. humidified incubator. Non-adherent cells were removed from the plates then wells were rinsed with X-VIVO 15™ containing no serum. Cells remaining in the wells were adherent cells. These cells were cultured by adding 2 ml of X-VIVO 15™ to each well plus GM-CSF and IL-4 at final concentrations of 50 ng/ml and 1000 U/ml or the following: cAMP at 0.5 mM, dibutyryl cAMP at 0.1 mM, NaF at 0.25 mM, theophylline at 0.5 mM, PGE at 0.1 mM, Vitamin D3 at 2.5 uM, Vitamin E at 0.1%, Retinoic Acid at 10^−6 M, PMA at 1 pM, Linoleic Acid at 5 ug/ml, or Ca^++ Ionophore at 10 mM. Furthermore, cells were also cultured with the above non-cytokine additives plus GM-CSF at 50 ng/ml. Cells were cultured in a 5% CO2, ambient O2, 37° C. humidified incubator for 7 days.
(§2) Cytospin slide preparation, Wright-Geimsa and immunohistochemical staining of the cultured cells were conducted as described in Example 1 and 2 above. Mixed lymphocyte reactions (MLR's) were setup using T cells (responders) and dendritic cell enriched cultures (stimulators) from bulk PBMNC cultures, as described above in Example 1.
(§3) Results: In the set of experiments using plastic adherent cells grown in polystyrene tissue culture plates, a Day 0 analysis of the cells was not performed. However, these cultures were analyzed for the presence of DC on days 4 and 7. Analysis perfomed were cell counts, viability via propidium iodide, morphology under Wright-Geimsa staining, and immunohistochemical staining using an anti-S100 antibody.

adherent PBMNC [2] = assay: Cell counts and viability of plastic adherent cells cultured with non-cytokine additives in polystyrene plates; parameters: % VIABLE: concentration or dose not given beside the values; conditions: for % VIABLE: propidium iodide
Method: Viability Determination: Prior to acquisition, 5 ul propidium iodide (PI) was added to each tube for use as a viability check. The cells were vortexed and acquired within 10 min of PI addition.
as §1, §3

adherent PBMNC [3] = assay: DC morphology (Wright-Geimsa) of plastic adherent cells cultured with non-cytokine additives
Method: Cytofunnels were attached to microscope slides. 50,000 to 100,000 cells were removed from each culture and resuspended in approximately 100 to 200 ul of PBS-CMF. Slides were placed in the Cytospin® centrifuge and spun at 100 rpm for 4 min. Cytofunnels were removed from the slides and the slides were air dried for 1 minute. Ten drops of Wright-Geimsa stain were placed onto each slide and allowed to fix for 1 to 2 minutes. Ten drops of water were added to each slide and allowed to sit for 2 to 4 minutes. The slides were rinsed and air dried.
Reading of Cytospin Slides: Slides were read under phase contrast microscopy, 40× and 60× oil magnification. One hundred cells were identified and characterized morphologically as either dendritic cells or non-dendritic cells (lymphocytes and monocyte, or CD34+-derived cells in those cases). Digital images were taken using a color monitor and color video printer.
as §1, §2, §3

| Molecule | % S100+ (adherent PBMNC [1]; Day 4, with GM-CSF present) | % S100+ (adherent PBMNC [1]; Day 7, without GM-CSF) | TOTAL CELLS (adherent PBMNC [2]; Day 4, with GM-CSF present) | % VIABLE (adherent PBMNC [2]; Day 4, with GM-CSF present) | TOTAL CELLS (adherent PBMNC [2]; Day 7, without GM-CSF) | % VIABLE (adherent PBMNC [2]; Day 7, without GM-CSF) | % DC (adherent PBMNC [3]; Day 4, with GM-CSF present) | % DC (adherent PBMNC [3]; Day 7, without GM-CSF) | % S100+ (adherent PBMNC [1]; Day 4, without GM-CSF) | % S100+ (adherent PBMNC [1]; Day 7, with GM-CSF present) | TOTAL CELLS (adherent PBMNC [2]; Day 4, without GM-CSF) | % VIABLE (adherent PBMNC [2]; Day 4, without GM-CSF) | TOTAL CELLS (adherent PBMNC [2]; Day 7, with GM-CSF present) | % VIABLE (adherent PBMNC [2]; Day 7, with GM-CSF present) | % DC (adherent PBMNC [3]; Day 4, without GM-CSF) | % DC (adherent PBMNC [3]; Day 7, with GM-CSF present) | percentages of S100+ cells (adherent PBMNC [1]; day 7, additive added to GM-CSF 50 ng/ml) |
| --- | --- | --- | --- | --- | --- | --- | --- | --- | --- | --- | --- | --- | --- | --- | --- | --- | --- |
| CNc1ccc2oc(CC3OC4(CCC3C)OC(C(C)C(=O)c3ccc[nH]3)C(C)CC4C)nc2c1C(=O)O (stereo not drawn) [Ca + + Iono] | 20.00% | 29.00% | 1.66E + 05 | 96.23% | 1.54E + 05 | 84.02% | 9.50% | 6.00% | – | – | – | – | – | – | – | – | – |
| CCCC(=O)Nc1ncnc2c1ncn2[C@@H]1O[C@@H]2COP(=O)(O)O[C@H]2[C@H]1OC(=O)CCC [dibutyryl cAMP, Dibutyryl cAMP] | 17.00% | 8.00% | 1.74E + 05 | 85.86% | 2.59E + 05 | 58.87% | 2.50% | 0.00% | 6.00% | 14.00% | 2.18E + 05 | 71.00% | 1.37E + 05 | 61.25% | 0.00% | 2.50% | – |
| [F-].[Na+] [NaF, Sodium Fluoride] | 7.00% | 2.50% | 1.90E + 05 | 67.04% | 2.18E + 05 | 44.31% | 0.00% | 0.00% | 0.00% | 5.00% | 2.19E + 05 | 72.46% | 1.44E + 05 | 30.61% | 0.00% | 0.00% | – |
| CCCCC[C@H](O)/C=C/[C@H]1[C@H](O)CC(=O)[C@@H]1CCCCCCC(=O)O [PGE, Prostaglandin E1] | 6.00% | 5.00% | 2.35E + 05 | 92.40% | 2.91E + 05 | 59.78% | 5.00% | 0.00% | 0.00% | 26.50% | 2.54E + 05 | 71.62% | 1.84E + 05 | 60.29% | 3.00% | 5.50% | – |
| Cn1c(=O)c2[nH]cnc2n(C)c1=O [theophylline, Theophylline] | 8.50% | 7.50% | 1.34E + 05 | 88.75% | 1.81E + 05 | 56.49% | 6.50% | 0.00% | 6.00% | 11.00% | 2.12E + 05 | 75.27% | 9.65E + 05 | 59.55% | 0.50% | 3.50% | – |
| CCCCCCCCCCCCCC(=O)O[C@@H]1[C@@H](C)[C@@]2(O)[C@@H](C=C(CO)C[C@]3(O)C(=O)C(C)=C[C@@H]23)[C@@H]2C(C)(C)[C@]12OC(C)=O [PMA, Phorbol Myristate Acetate] | 20.00% | 6.50% | 1.45E + 05 | 97.60% | 1.51E + 05 | 82.20% | 4.50% | 1.00% | 4.00% | 26.50% | 1.64E + 05 | 77.17% | 1.04E + 05 | 95.15% | 1.00% | 0.00% | – |
| CC1=C(/C=C/C(C)=C/C=C/C(C)=C/C(=O)O)C(C)(C)CCC1 [Ret Acid] | 9.00% | 7.00% | 1.21E + 05 | 95.30% | 1.66E + 05 | 45.17% | 1.50% | 0.00% | 7.00% | 14.00% | 1.48E + 05 | 60.67% | – | 88.52% | 10.00% | 4.00% | – |
| Cc1c(C)c2c(c(C)c1O)CCC(C)(CCCC(C)CCCC(C)CCCC(C)C)O2 (mixture of isomers) [Vit E] | 26.00% | 11.00% | 1.38E + 05 | 97.48% | 1.75E + 05 | 71.91% | 4.50% | 3.00% | 19.00% | 19.00% | 1.64E + 05 | 78.65% | 1.05E + 05 | 94.21% | 2.50% | 6.00% | – |
| IL-4: interleukin-4, Genzyme; added to GM-CSF (protein, UniProt P05112 25-153, looked up) Interleukin-4: HKCDITLQEIIKTLNSLTEQKTLCTELTVTDIFAASKNTTEKETFCRAATVLRQFYSHHEKDTRCLGATAQQFHRHKQLIRFLKRLDRNLWGLAGLNSCPVKEANQSTLENFLERLKTIMREKYSKCSS | – | – | – | – | – | – | – | – | – | – | – | – | – | – | – | – | greatest percentages of S100+ cells |
